Experimental data from patent publication US7319000B1, “Compositions and methods for eliciting immune or anti-infective responses” (priority 1992, dated 2008).

system: BALB/c mice; test: Anti-peptide antibody response (ELISA) in BALB/c mice immunized with peptide multimers; format: in vivo; parameters: key to Antipeptide Antibody Reactivity to Analogous Peptide: −: cpm values are corrected and categorized according to unrelated antigen response in vitro.; •: Not determined.; +: cpm values are corrected and categorized according to unrelated antigen response in vitro.; ++: cpm values are corrected and categorized according to unrelated antigen response in vitro.; +++: cpm values are corrected and categorized according to unrelated antigen response in vitro.; ++++: cpm values are corrected and categorized according to unrelated antigen response in vitro; settings: antibody raised in Balb/C mice; ELISA end point

Sequence | Antipeptide Antibody Reactivity to Analogous Peptide
AHKVWATHACV [Peptide 106] | ++
CRIKQIINMWQGVGKAMYA [Peptide 65, gp160 aa 417-435; polymeric form of the T-helper cell peptide] | ++
CVPTNPVPQEVV [Peptide 107] | +
EQMHEDIISLWDQ [Peptide 110] | ++++
FEPIPIHYCAFPGF [Peptide 114] | ++++
FLGFLGAAGSTMGAASLTLTVQANQ [Peptide 63, gp160 aa 519-543] | •
GTGPCTNVSTVQC [Peptide 116] | −
GVPVWKEATTLFC [Peptide 105] | •
KKFNGTGPCTN [Peptide 115] | ++
LWDQSLKPCVKLT [Peptide 111] | −
NNMVEQMHEDI [Peptide 109] | +++
SLKPCVKLTPLC [Peptide 112] | +
SVITQACSKVSFE [Peptide 113] | −
VLENVTENFNM [Peptide 108] | +
VQCTHGIRPVVSTQ [Peptide 117] | ++++
VYYGVPVWKEA [Peptide 104] | •

same assay, conditions: disulfide (di-Cys) polymeric form

Sequence | anti-peptide antibody production (in words)
FLGFLGAAGSTMGAASLTLTVQANQ [Peptide 63, gp160 aa 519-543] | do not stimulate anti-peptide antibody production
SVITQACSKVSFE [Peptide 113] | do not stimulate anti-peptide antibody production

same assay, conditions: high molecular weight forms of the peptides

Sequence | anti-peptide antibody response (in words)
AHKVWATHACV [Peptide 106] | high antibody titers
CRIKQIINMWQGVGKAMYA [Peptide 65, gp160 aa 417-435; polymeric form of the T-helper cell peptide] | high antibody titers
CVPTNPVPQEVV [Peptide 107] | high antibody titers
EQMHEDIISLWDQ [Peptide 110] | high antibody titers
FEPIPIHYCAFPGF [Peptide 114] | high antibody titers
FLGFLGAAGSTMGAASLTLTVQANQ [Peptide 63, gp160 aa 519-543] | very low to negligible amounts of anti-peptide antibodies
GTGPCTNVSTVQC [Peptide 116] | very low to negligible amounts of anti-peptide antibodies
GVPVWKEATTLFC [Peptide 105] | high antibody titers
KKFNGTGPCTN [Peptide 115] | high antibody titers
LWDQSLKPCVKLT [Peptide 111] | very low to negligible amounts of anti-peptide antibodies
NNMVEQMHEDI [Peptide 109] | high antibody titers
SLKPCVKLTPLC [Peptide 112] | high antibody titers
SVITQACSKVSFE [Peptide 113] | very low to negligible amounts of anti-peptide antibodies
VLENVTENFNM [Peptide 108] | high antibody titers
VQCTHGIRPVVSTQ [Peptide 117] | high antibody titers
VYYGVPVWKEA [Peptide 104] | very low to negligible amounts of anti-peptide antibodies

system: PLN cells from B6C3F1 mice; test: In vitro proliferation (3H-TdR) of PLN cells from immunized B6C3 F1 mice; format: in vivo; parameters: key to In Vitro Proliferation of PLN Cells from B6C3F1, Analogous Peptide / In Vitro Proliferation of PLN Cells from B6C3F1, GP 160: −: cpm values are corrected and categorized according to unrelated antigen response in vitro.; •: Not determined.; +: cpm values are corrected and categorized according to unrelated antigen response in vitro.; ++: cpm values are corrected and categorized according to unrelated antigen response in vitro.; +++: cpm values are corrected and categorized according to unrelated antigen response in vitro.; ++++: cpm values are corrected and categorized according to unrelated antigen response in vitro; settings: disulfide (di-Cys) polymeric form

Sequence | T cell response against the corresponding peptide and native HIV envelope protein gp160 (in words)
FLGFLGAAGSTMGAASLTLTVQANQ [Peptide 63, gp160 aa 519-543] | strong T cell response
SVITQACSKVSFE [Peptide 113] | strong T cell response

same assay, conditions: in vitro antigen: GP 160

Sequence | In Vitro Proliferation of PLN Cells from B6C3F1, GP 160
AHKVWATHACV [Peptide 106] | +
CRIKQIINMWQGVGKAMYA [Peptide 65, gp160 aa 417-435; polymeric form of the T-helper cell peptide] | +
CVPTNPVPQEVV [Peptide 107] | ++
EQMHEDIISLWDQ [Peptide 110] | −
FEPIPIHYCAFPGF [Peptide 114] | −
FLGFLGAAGSTMGAASLTLTVQANQ [Peptide 63, gp160 aa 519-543] | ++
GTGPCTNVSTVQC [Peptide 116] | −
GVPVWKEATTLFC [Peptide 105] | +++
KKFNGTGPCTN [Peptide 115] | +
LWDQSLKPCVKLT [Peptide 111] | ++
NNMVEQMHEDI [Peptide 109] | •
SLKPCVKLTPLC [Peptide 112] | +
SVITQACSKVSFE [Peptide 113] | +
VLENVTENFNM [Peptide 108] | +
VQCTHGIRPVVSTQ [Peptide 117] | −
VYYGVPVWKEA [Peptide 104] | ++

same assay, conditions: in vitro antigen: analogous peptide

Sequence | In Vitro Proliferation of PLN Cells from B6C3F1, Analogous Peptide
AHKVWATHACV [Peptide 106] | +++
CRIKQIINMWQGVGKAMYA [Peptide 65, gp160 aa 417-435; polymeric form of the T-helper cell peptide] | ++
CVPTNPVPQEVV [Peptide 107] | ++
EQMHEDIISLWDQ [Peptide 110] | ++
FEPIPIHYCAFPGF [Peptide 114] | ++
FLGFLGAAGSTMGAASLTLTVQANQ [Peptide 63, gp160 aa 519-543] | ++
GTGPCTNVSTVQC [Peptide 116] | ++
GVPVWKEATTLFC [Peptide 105] | ++++
KKFNGTGPCTN [Peptide 115] | ++
LWDQSLKPCVKLT [Peptide 111] | +
NNMVEQMHEDI [Peptide 109] | ++
SLKPCVKLTPLC [Peptide 112] | +
SVITQACSKVSFE [Peptide 113] | ++
VLENVTENFNM [Peptide 108] | +
VQCTHGIRPVVSTQ [Peptide 117] | +++
VYYGVPVWKEA [Peptide 104] | ++++

system: PLN cells from A SW × Balb/c F1 mice; test: In vitro proliferation (3H-TdR) of PLN cells from immunized A.SW x BALB/c F1 mice; format: in vivo, A.SWXBALB/C F1 mice; parameters: key: −: cpm values are corrected and categorized according to unrelated antigen response in vitro.; •: Not determined.; +: cpm values are corrected and categorized according to unrelated antigen response in vitro.; ++: cpm values are corrected and categorized according to unrelated antigen response in vitro.; +++: cpm values are corrected and categorized according to unrelated antigen response in vitro.; ++++: cpm values are corrected and categorized according to unrelated antigen response in vitro; settings: in vitro antigen: GP 160

Sequence | In Vitro Proliferation of PLN Cells from A SW × Balb/c F1, GP 160
AHKVWATHACV [Peptide 106] | +
CRIKQIINMWQGVGKAMYA [Peptide 65, gp160 aa 417-435; polymeric form of the T-helper cell peptide] | ++
CVPTNPVPQEVV [Peptide 107] | +
EQMHEDIISLWDQ [Peptide 110] | +
FEPIPIHYCAFPGF [Peptide 114] | +
FLGFLGAAGSTMGAASLTLTVQANQ [Peptide 63, gp160 aa 519-543] | ++
GVPVWKEATTLFC [Peptide 105] | −
LWDQSLKPCVKLT [Peptide 111] | −
NNMVEQMHEDI [Peptide 109] | +
SLKPCVKLTPLC [Peptide 112] | +
SVITQACSKVSFE [Peptide 113] | +
VLENVTENFNM [Peptide 108] | −
VYYGVPVWKEA [Peptide 104] | +

same assay, conditions: in vitro antigen: analogous peptide

Sequence | In Vitro Proliferation of PLN Cells from A SW × Balb/c F1, Analogous Peptide
AHKVWATHACV [Peptide 106] | ++++
CRIKQIINMWQGVGKAMYA [Peptide 65, gp160 aa 417-435; polymeric form of the T-helper cell peptide] | ++++
CVPTNPVPQEVV [Peptide 107] | +
EQMHEDIISLWDQ [Peptide 110] | ++
FEPIPIHYCAFPGF [Peptide 114] | ++
FLGFLGAAGSTMGAASLTLTVQANQ [Peptide 63, gp160 aa 519-543] | ++
GVPVWKEATTLFC [Peptide 105] | +
LWDQSLKPCVKLT [Peptide 111] | •
NNMVEQMHEDI [Peptide 109] | •
SLKPCVKLTPLC [Peptide 112] | +
SVITQACSKVSFE [Peptide 113] | ++
VLENVTENFNM [Peptide 108] | +
VYYGVPVWKEA [Peptide 104] | +++

system: PBMCs of immunized rhesus monkeys; test: PBMC proliferation in rhesus monkeys immunized with a mixture of eight synthetic peptides; format: in vivo; parameters: key to T-cell Proliferation Responses: —: no detectable response; 1+: poor response; 2+: good response; 3+: better response; 4+: best response; 6+: best response; settings: Rhesus Monkey #7; PBMC response to the individual peptide or gp160
Method: In the present studies, three rhesus monkeys (#7, #23 and #283C) were immunized subcutaneously with 1 ml (0.1 ml/site) of a mixture of eight synthetic peptides (300·g of each peptide in sterile water) emulsified in complete Freund's adjuvant at 1:1 ratio. […] At 3 and 7 weeks after the primary immunization, two booster injections of the peptide mixture (150·g of each peptide in sterile water) emulsified in incomplete Freund's adjuvant were given to each monkey. Monkey #7 was terminated after […], for health reasons unrelated to the study, while the remaining two monkeys (#283C and #23) received one additional booster injection at 25 weeks.
At two week intervals following the first immunization of each animal, 15 ml of whole heparinized blood was collected by venous puncture. The peripheral blood mononuclear cells (PBMC) were separated by standard ficoll-hypaque centrifugation and employed in proliferation assays. The PBMCs were monitored every two weeks for a period of 32 weeks for proliferative responses against individual peptides and recombinant gp160.

Sequence | T-cell Proliferation Responses
FLGFLGAAGSTMGAASLTLTVQANQ [Peptide 63, gp160 aa 519-543] | 2+
GTGPCTNVSTVQC [Peptide 116] | 1+
LWDQSLKPCVKLT [Peptide 111] | 3+
SVITQACSKVSFE [Peptide 113] | 1+
VYYGVPVWKEA [Peptide 104] | 4+

same assay, conditions: Rhesus Monkey #23; PBMC response to the individual peptide or gp160

Sequence | T-cell Proliferation Responses
FLGFLGAAGSTMGAASLTLTVQANQ [Peptide 63, gp160 aa 519-543] | 4+
GTGPCTNVSTVQC [Peptide 116] | 3+
LWDQSLKPCVKLT [Peptide 111] | 2+
SVITQACSKVSFE [Peptide 113] | 2+
VYYGVPVWKEA [Peptide 104] | 2+

same assay, conditions: Rhesus Monkey #283C; PBMC response to the individual peptide or gp160

Sequence | T-cell Proliferation Responses
FLGFLGAAGSTMGAASLTLTVQANQ [Peptide 63, gp160 aa 519-543] | 3+
GTGPCTNVSTVQC [Peptide 116] | 2+
LWDQSLKPCVKLT [Peptide 111] | 3+
SVITQACSKVSFE [Peptide 113] | 2+
VYYGVPVWKEA [Peptide 104] | 4+

same assay, conditions: three rhesus monkeys, monitored for 32 weeks

Sequence | PBMC proliferative responses (in words)
FLGFLGAAGSTMGAASLTLTVQANQ [Peptide 63, gp160 aa 519-543] | good proliferative responses
GTGPCTNVSTVQC [Peptide 116] | weak responses
GVPVWKEATTLFC [Peptide 105] | A significant response was not detected
LWDQSLKPCVKLT [Peptide 111] | good proliferative responses
SVITQACSKVSFE [Peptide 113] | weak responses
VYYGVPVWKEA [Peptide 104] | good proliferative responses
